Results taken from PubChem BioAssay (NCI).
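GI50: concentration for 50% inhibition of growth. Definition used: TGI = concentration required for complete inhibition of growth.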

Key:
Experiment in all cases: DTP human tumour cell line panel, 384-well format
[1] = test system: OVCAR-3 ovarian
[2] = test system: OVCAR-4 ovarian
[3] = test system: 786-0 renal
[4] = test system: M14 melanoma
[5] = test system: TK-10 renal
[6] = test system: COLO 205 colon
[7] = test system: SN12C renal
[8] = test system: MDA-MB-468 breast
[9] = test system: T-47D breast
[10] = test system: SK-OV-3 ovarian
[11] = test system: HOP-62 NSCLC
[12] = test system: NCI-H226 lung
[13] = test system: LOX IMVI melanoma
[14] = test system: BT-549 breast
[15] = test system: HCT-116 colon
[16] = test system: CAKI-1 renal
[17] = test system: SF-295 CNS
[18] = test system: RXF 393 renal
[19] = test system: NCI-H23 lung
[20] = test system: A498 renal
[21] = test system: UO-31 renal
[22] = test system: HOP-92 NSCLC
[23] = test system: UACC-257 melanoma
[24] = test system: MCF7 breast
[25] = test system: SW-620 colon
[26] = test system: UACC-62 melanoma
[27] = test system: HL-60(TB) leukemia
[28] = test system: KM12 colon
[29] = test system: SNB-75 CNS
[30] = test system: SF-539 CNS
[31] = test system: OVCAR-8 ovarian
[32] = test system: NCI-H322M lung
[33] = test system: MDA-MB-231 breast
[34] = test system: NCI-H522 lung
[35] = test system: A549 NSCLC
[36] = test system: HT29 colon
[37] = test system: MOLT-4 leukemia
[38] = test system: MALME-3M melanoma
[39] = test system: IGROV1 ovarian
[40] = test system: HCC-2998 colon
[41] = test system: DU-145 prostate
[42] = test system: OVCAR-5 ovarian
[43] = test system: HS 578T breast
[44] = test system: HCT-15 colon
[45] = test system: ACHN renal
[46] = test system: EKVX NSCLC
[47] = test system: SK-MEL-2 melanoma
[48] = test system: MDA-MB-435 melanoma
[49] = test system: K-562 leukemia
[50] = test system: SF-268 CNS
[51] = test system: SNB-19 CNS
[52] = test system: SK-MEL-28 melanoma
[53] = test system: PC-3 prostate
[54] = test system: U251 glioblastoma
[55] = test system: NCI-H460 NSCLC
[56] = test system: RPMI-8226 leukemia
[57] = test system: NCI/ADR-RES ovarian
[58] = test system: CCRF-CEM leukemia

O=C(CCCCCCC(=O)Nc1ccccc1)NO was tested, and the GI50 [1] was 1570 nM, the TGI [1] was 4240 nM and the GI50 [2] was 3150 nM. It also gave a TGI [2] of 8550 nM, a GI50 [3] of 2190 nM and a TGI [3] of 10400 nM. The GI50 [4] was 1490 nM, the TGI [4] was 7780 nM and the GI50 [5] was 1270 nM. It also gave a TGI [5] of 4850 nM, a GI50 [6] of 1480 nM and a TGI [6] of 2930 nM. The GI50 [7] was 1810 nM, the TGI [7] was 4220 nM and the GI50 [8] was 365 nM. The TGI [8] was 1090 nM, the GI50 [9] was 667 nM and the TGI [9] was 2350 nM. It also gave a GI50 [10] of 1680 nM, a TGI [10] of 4150 nM and a GI50 [11] of 1200 nM. For the same molecule, the TGI [11] was 4990 nM, the GI50 [12] was 3930 nM and the TGI [12] was 16800 nM. It also gave a GI50 [13] of 1450 nM, a TGI [13] of 2790 nM and a GI50 [14] of 2490 nM. For the same molecule, the TGI [14] was 7020 nM, the GI50 [15] was 461 nM and the TGI [15] was 1730 nM. The GI50 [16] was 704 nM, the TGI [16] was 2120 nM and the GI50 [17] was 1810 nM. It also gave a TGI [17] of 6070 nM, a GI50 [18] of 471 nM and a TGI [18] of 1410 nM. The GI50 [19] was 1370 nM, the TGI [19] was 3990 nM and the GI50 [20] was 1520 nM. For the same molecule, the TGI [20] was 3420 nM, the GI50 [21] was 2150 nM and the TGI [21] was 9080 nM. For the same molecule, the GI50 [22] was 1610 nM, the TGI [22] was 3980 nM and the GI50 [23] was 626 nM. The TGI [23] was 2450 nM, the GI50 [24] was 1020 nM and the TGI [24] was 2490 nM. It also gave a GI50 [25] of 948 nM, a TGI [25] of 2270 nM and a GI50 [26] of 467 nM. For the same molecule, the TGI [26] was 1570 nM, the GI50 [27] was 348 nM and the TGI [27] was 733 nM. The GI50 [28] was 329 nM, the TGI [28] was 10700 nM and the GI50 [29] was 399 nM. The TGI [29] was 2630 nM, the GI50 [30] was 2040 nM and the TGI [30] was 12300 nM. For the same molecule, the GI50 [31] was 486 nM, the TGI [31] was 2400 nM and the GI50 [32] was 1510 nM. The TGI [32] was 5810 nM, the GI50 [33] was 1090 nM and the TGI [33] was 2910 nM. It also gave a GI50 [34] of 431 nM, a TGI [34] of 1780 nM and a GI50 [35] of 1410 nM. It also gave a TGI [35] of 4160 nM, a GI50 [36] of 1370 nM and a TGI [36] of 3120 nM. The GI50 [37] was 190 nM, the TGI [37] was 444 nM and the GI50 [38] was 400 nM. It also gave a TGI [38] of 1460 nM, a GI50 [39] of 886 nM and a TGI [39] of 2350 nM. The GI50 [40] was 1650 nM, the TGI [40] was 3980 nM and the GI50 [41] was 729 nM. It also gave a TGI [41] of 2320 nM, a GI50 [42] of 853 nM and a TGI [42] of 3050 nM. For the same molecule, the GI50 [43] was 736 nM, the TGI [43] was 2230 nM and the GI50 [44] was 2530 nM. For the same molecule, the TGI [44] was 10300 nM, the GI50 [45] was 1330 nM and the TGI [45] was 3590 nM. It also gave a GI50 [46] of 3800 nM, a TGI [46] of 28500 nM and a GI50 [47] of 369 nM. It also gave a TGI [47] of 982 nM, a GI50 [48] of 1540 nM and a TGI [48] of 3390 nM. For the same molecule, the GI50 [49] was 408 nM, the TGI [49] was 1490 nM and the GI50 [50] was 1250 nM. It also gave a TGI [50] of 2810 nM, a GI50 [51] of 1990 nM and a TGI [51] of 5210 nM. It also gave a GI50 [52] of 988 nM, a TGI [52] of 2520 nM and a GI50 [53] of 1480 nM. It also gave a TGI [53] of 3930 nM, a GI50 [54] of 1300 nM and a TGI [54] of 2860 nM. For the same molecule, the GI50 [55] was 876 nM and the TGI [55] was 4810 nM.

FC(F)(F)c1ccc(Nc2nc(-c3c(C(F)(F)F)nc4ccccn34)cs2)cc1 was tested, and the GI50 [1] was 16.6 nM, the TGI [1] was 39.1 nM and the GI50 [2] was 1000 nM. The TGI [2] was 4460 nM, the GI50 [56] was 18.3 nM and the TGI [56] was 36.8 nM. For the same molecule, the GI50 [3] was 32.7 nM, the TGI [3] was 1220 nM and the GI50 [4] was 25.2 nM. For the same molecule, the TGI [4] was 88.5 nM, the GI50 [5] was 69.3 nM and the TGI [5] was 5310 nM. The GI50 [6] was 26.5 nM, the TGI [6] was 67.1 nM and the GI50 [7] was 38.6 nM. For the same molecule, the TGI [7] was 2400 nM, the GI50 [8] was 161 nM and the TGI [8] was 310 nM. It also gave a GI50 [9] of 28.9 nM, a TGI [9] of 3230 nM and a GI50 [10] of 34.8 nM. The TGI [10] was 1660 nM, the GI50 [11] was 33.5 nM and the TGI [11] was 1440 nM. For the same molecule, the GI50 [12] was 30.2 nM, the TGI [12] was 86.7 nM and the GI50 [13] was 48.4 nM. The TGI [13] was 2210 nM, the GI50 [14] was 39.1 nM and the TGI [14] was 1240 nM. It also gave a GI50 [57] of 19.5 nM, a TGI [57] of 42.4 nM and a GI50 [15] of 32.8 nM. For the same molecule, the TGI [15] was 1440 nM, the GI50 [16] was 26.4 nM and the TGI [16] was 1850 nM. The GI50 [17] was 32.1 nM, the TGI [17] was 356 nM and the GI50 [18] was 13.4 nM. For the same molecule, the TGI [18] was 42.8 nM, the GI50 [19] was 26.4 nM and the TGI [19] was 89.6 nM. The GI50 [20] was 32.7 nM, the TGI [20] was 1240 nM and the GI50 [21] was 42.2 nM. For the same molecule, the TGI [21] was 3420 nM, the GI50 [22] was 41.1 nM and the TGI [22] was 2970 nM. For the same molecule, the GI50 [24] was 30.3 nM, the TGI [24] was 1450 nM and the GI50 [25] was 33.9 nM. It also gave a TGI [25] of 2600 nM, a GI50 [26] of 27.5 nM and a TGI [26] of 1590 nM. For the same molecule, the GI50 [27] was 14.7 nM, the TGI [27] was 28.4 nM and the GI50 [28] was 24.4 nM. The TGI [28] was 1080 nM, the GI50 [29] was 22.1 nM and the TGI [29] was 78.7 nM. The GI50 [30] was 35.7 nM, the TGI [30] was 179 nM and the GI50 [31] was 35.7 nM. For the same molecule, the TGI [31] was 1150 nM, the GI50 [32] was 50.4 nM and the TGI [32] was 2560 nM. It also gave a GI50 [33] of 52.4 nM, a TGI [33] of 4690 nM and a GI50 [34] of 16.7 nM. It also gave a TGI [34] of 36.6 nM, a GI50 [35] of 61.9 nM and a TGI [35] of 3740 nM. For the same molecule, the GI50 [36] was 23.8 nM, the TGI [36] was 52.5 nM and the GI50 [37] was 18.9 nM. The TGI [37] was 37.4 nM, the GI50 [38] was 32 nM and the TGI [38] was 6490 nM. For the same molecule, the GI50 [39] was 73.2 nM, the TGI [39] was 7330 nM and the GI50 [40] was 32.1 nM. The TGI [40] was 375 nM, the GI50 [41] was 32.8 nM and the TGI [41] was 1370 nM. It also gave a GI50 [43] of 17.2 nM, a TGI [43] of 37.5 nM and a GI50 [44] of 32.4 nM. It also gave a TGI [44] of 1320 nM, a GI50 [45] of 88.9 nM and a TGI [45] of 3190 nM. For the same molecule, the GI50 [46] was 43.2 nM, the TGI [46] was 2390 nM and the GI50 [48] was 12.8 nM. The TGI [48] was 33.2 nM, the GI50 [49] was 27.6 nM and the TGI [49] was 89.8 nM. The GI50 [50] was 35.4 nM, the TGI [50] was 1430 nM and the GI50 [51] was 47.1 nM. The TGI [51] was 1960 nM, the GI50 [52] was 52.1 nM and the TGI [52] was 5080 nM. For the same molecule, the GI50 [53] was 32.6 nM, the TGI [53] was 1820 nM and the GI50 [54] was 42.4 nM. The TGI [54] was 1490 nM, the GI50 [58] was 19.6 nM and the TGI [58] was 36.9 nM. The GI50 [55] was 30.2 nM and the TGI [55] was 83.3 nM.
